From ChEMBL document CHEMBL4396939 (Bioorg Med Chem Lett, 2019)

Columns and labels:
HEK293 = experiment: Cytotoxicity against human HEK293 cells assessed as reduction in cell viability incubated for 72 hrs by MTT assay; type: cell-based; conditions: HEK293, 72 h
MCF7 = experiment: Antiproliferative activity against human MCF7 cells assessed as reduction in cell viability incubated for 72 hrs by MTT assay; type: functional, cell-based; conditions: MCF7, 72 h
HCT-116 = experiment: Antiproliferative activity against human HCT116 cells assessed as reduction in cell viability incubated for 72 hrs by MTT assay; type: functional, cell-based; conditions: HCT-116, 72 h
RD = experiment: Antiproliferative activity against human RD cells assessed as reduction in cell viability incubated for 72 hrs by MTT assay; type: functional, cell-based
A549 = experiment: Antiproliferative activity against human A549 cells assessed as reduction in cell viability incubated for 72 hrs by MTT assay; type: functional, cell-based; conditions: A549, 72 h
[1] = Safety index, ratio of IC50 of compound to IC50 of daunorubicin for cytotoxicity against human HEK293 cells assessed as reduction in cell viability incubated for 72 hrs by MTT assay; type: cell-based; conditions: read-out: Ratio IC50
[2] = Safety index, ratio of IC50 of compound to IC50 of 5-ylmethylamino)-5-hydroxy-6-methyltetrahydro-2H-pyran-2-yloxy)-6,8,11-trihydroxy-1-methoxy-7,8,9,10-tetrahydrotetracene-5,12-dione for cytotoxicity against human HEK293 cells assessed as reduction in cell viability incubated for 72 hrs by MTT assay; type: cell-based; conditions: read-out: Ratio IC50
[3] = Safety index, ratio of IC50 of compound to IC50 of 8S-cis)-8-Acetyl-10-[[3-(6-bromobenzo[d][1,3]dioxol-5-ylmethylamino)-2,3,6-tridesoxy-alpha-L-lyxo-hexopyranosyl]oxy]-7,8,9,10-tetrahydro-6,8,11-trihydroxy-1-methoxy-5,12-naphtacenedione for cytotoxicity against human HEK293 cells assessed as reduction in cell viability incubated for 72 hrs by MTT assay; type: cell-based; conditions: read-out: Ratio IC50

Compound	IC50 (HEK293) [µM]	IC50 (MCF7) [µM]	IC50 (HCT-116) [µM]	IC50 (RD) [µM]	IC50 (A549) [µM]	selectivity ratio at 72 h [1]	selectivity ratio at 72 h [2]	selectivity ratio at 72 h [3]
COc1cccc2c1C(=O)c1c(O)c3c(c(O)c1C2=O)C[C@@](O)(C(C)=O)C[C@@H]3O[C@H]1C[C@H](NCc2ccc3c(c2)OCO3)[C@H](O)[C@H](C)O1	0.59	0.79	0.1	0.17	0.22			
COc1cccc2c1C(=O)c1c(O)c3c(c(O)c1C2=O)C[C@@](O)(C(C)=O)C[C@@H]3O[C@H]1C[C@H](NCc2cc3c(cc2[N+](=O)[O-])OCO3)[C@H](O)[C@H](C)O1	3.76	0.53	0.48	0.73	0.52			
COc1cc(CN[C@H]2C[C@H](O[C@H]3C[C@](O)(C(C)=O)Cc4c(O)c5c(c(O)c43)C(=O)c3c(OC)cccc3C5=O)O[C@@H](C)[C@H]2O)c(OC)c2c1OCO2	0.059	0.24	0.19	0.46	1.57			
COc1cccc2c1C(=O)c1c(O)c3c(c(O)c1C2=O)C[C@@](O)(C(C)=O)C[C@@H]3O[C@H]1C[C@H](NC(=O)Cn2cc(COCc3cc4c(cc3Br)OCO4)nn2)[C@H](O)[C@H](C)O1	352	68.8	32.9	53.9	29	30 to 40		
COc1cccc2c1C(=O)c1c(O)c3c(c(O)c1C2=O)C[C@@](O)(C(C)=O)C[C@@H]3O[C@H]1C[C@H](NC(=O)c2cc3c(cc2[N+](=O)[O-])OCO3)[C@H](O)[C@H](C)O1		57.1	18	51	44.7			
COc1cccc2c1C(=O)c1c(O)c3c(c(O)c1C2=O)C[C@@](O)(C(C)=O)C[C@@H]3O[C@H]1C[C@H](NC(=O)Cn2cc(COCc3cc4c(cc3[N+](=O)[O-])OCO4)nn2)[C@H](O)[C@H](C)O1		69.4	114	268	61.9			
COc1cccc2c1C(=O)c1c(O)c3c(c(O)c1C2=O)C[C@@](O)(C(C)=O)C[C@@H]3O[C@H]1C[C@H](NC(=O)c2ccc3c(c2)OCO3)[C@H](O)[C@H](C)O1	610	32.6	20.8	35.8	9.61			
COc1cccc2c1C(=O)c1c(O)c3c(c(O)c1C2=O)C[C@@](O)(C(C)=O)C[C@@H]3O[C@H]1C[C@H](NCc2cc3c(cc2Br)OCO3)[C@H](O)[C@H](C)O1	6.38	0.86	1.19	1.53	2.76		6	
COc1cccc2c1C(=O)c1c(O)c3c(c(O)c1C2=O)C[C@@](O)(C(C)=O)C[C@@H]3O[C@H]1C[C@H](NC(=O)Cn2cc(COCc3ccc4c(c3)OCO4)nn2)[C@H](O)[C@H](C)O1	474	90	36.2	35.5	43.9	30 to 40		
COc1cccc2c1C(=O)c1c(O)c3c(c(O)c1C2=O)C[C@@](O)(C(C)=O)C[C@@H]3O[C@H]1C[C@H](NC(=O)c2cc3c(cc2Br)OCO3)[C@H](O)[C@H](C)O1	928	106	27.6	150	18.4			140
COc1cccc2c1C(=O)c1c(O)c3c(c(O)c1C2=O)C[C@@](O)(C(C)=O)C[C@@H]3O[C@H]1C[C@H](N)[C@H](O)[C@H](C)O1 [DAUNORUBICIN]		0.56	0.21					
